Data published in US20240309005A1 (priority 2021, published 2024).
In brackets after ≈: the same amount, converted by molar mass. Counter-ions that a name gives are not always drawn.

Tests used:
physchem = conditions: 25 °C, kinetic from dmso stock
in vivo [1] = conditions: male, CD1, mouse; for Cmax / bioavailability: po, 30 mg/kg
in vivo [2] = conditions: male, SD, rat; for bioavailability / Cmax: po, 30 mg/kg; for Cmax: Cmax (ng/ml)

SMILES	solubility at 2 h (physchem; pH 5, fessif) [µM]	solubility at 2 h (physchem; pH 7.4, aqueous buffer) [µM]	hERG/IC50 (hERG / SGK1 (whole cell))	Cmax (in vivo [1]) [ng/mL]	bioavailability (in vivo [1]) [%]	half-life (in vivo [1]) [h]	half-life (in vivo [2]) [h]	bioavailability (in vivo [2]) [%]	Cmax (in vivo [2]) [ng/mL]
Cc1n[nH]c2nc(-c3ccc(NS(=O)(=O)c4ccncc4F)cc3)nc(NCCN(C)C)c12 [Compound 15, N-[4-(4-[[2-(dimethylamino)ethyl]amino]-3-methyl-1H-pyrazolo[3,4-d]pyrimidin-6-yl)phenyl]-3-fluoropyridine-4-sulfonamide]	289 (≈ 136 µg/mL)	282 (≈ 133 µg/mL)	4.7	–	–	–	–	–	–
Cc1n[nH]c2nc(-c3ccc(NS(=O)(=O)c4cc(Cl)ccc4F)cc3)nc(NCCN(C)C=O)c12 [Compound 18, N-[2-([6-[4-(5-chloro-2-fluorobenzenesulfonamide)phenyl]-3-methyl-1H-pyrazolo[3,4-d]pyrimidin-4-yl]amino)ethyl]-N-methylformamide]	268 (≈ 139 µg/mL)	52 (≈ 26.9 µg/mL)	–	2.3	0.5	–	–	–	–
Cc1n[nH]c2nc(-c3ccc(NS(=O)(=O)c4cc(C(F)(F)F)ccn4)cc3)nc(NCCN(C)C)c12 [Compound 30, N-(4-(4-((2-(dimethylamino)ethyl)amino)-3-methyl-1H-pyrazolo[3,4-d]pyrimidin-6-yl)phenyl)-4-(trifluoromethyl)pyridine-2-sulfonamide]	276 (≈ 144 µg/mL)	295 (≈ 154 µg/mL)	–	548	18.8	4.4	–	–	–
Cc1n[nH]c2nc(-c3ccc(NS(=O)(=O)c4cc(Cl)ccc4F)c(F)c3)nc(NCCN(C)C)c12 [Compound 38, 5-chloro-N-(4-(4-((2-(dimethylamino)ethyl)amino)-3-methyl-1H-pyrazolo[3,4-d]pyrimidin-6-yl)-2-fluorophenyl)-2-fluorobenzenesulfonamide]	298 (≈ 156 µg/mL)	15.9 (≈ 8.3 µg/mL)	–	2340	41	2.2	–	–	–
Cc1n[nH]c2nc(-c3ccc(NS(=O)(=O)c4cc(Cl)ccc4F)cc3)nc(O[C@@H]3CCN(CCO)C[C@@H]3F)c12 [Compound 50, 5-chloro-2-fluoro-N-[4-(4-{[(3S,4R)-3-fluoro-1-(2-hydroxyethyl)piperidin-4-yl]oxy}-3-methyl-1H-pyrazolo[3,4-d]pyrimidin-6-yl)phenyl]benzenesulfonamide]	–	–	–	54.9	–	3.2	–	–	–
Cc1n[nH]c2nc(-c3ccc(NS(=O)(=O)c4cc(OC(C)C)ccn4)cc3)nc(NCCN(C)C)c12 [Compound 73, N-[4-(4-{[2-(dimethylamino)ethyl]amino}-3-methyl-1H-pyrazolo[3,4-d]pyrimidin-6-yl)phenyl]-4-isopropoxypyridine-2-sulfonamide]	311 (≈ 159 µg/mL)	265 (≈ 135 µg/mL)	–	143	–	1.5	–	–	–
COc1ccc(F)c(S(=O)(=O)Nc2ccc(-c3nc(NCCN(C)CCO)c4c(C)n[nH]c4n3)cc2)c1 [Compound 77, 2-fluoro-N-{4-[4-({2-[(2-hydroxyethyl)(methyl)amino]ethyl}amino)-3-methyl-1H-pyrazolo[3,4-d]pyrimidin-6-yl]phenyl}-5-methoxybenzenesulfonamide]	–	–	–	16.8	0.75	2.2	–	–	–
Cc1n[nH]c2nc(-c3ccc(NS(=O)(=O)c4cc(Cl)ccc4F)c(F)c3)nc(OC3CCN(C)CC3)c12 [Compound 79, 5-chloro-2-fluoro-N-(2-fluoro-4-{3-methyl-4-[(1-methylpiperidin-4-yl)oxy]-1H-pyrazolo[3,4-d]pyrimidin-6-yl}phenyl)benzenesulfonamide]	321 (≈ 176 µg/mL)	2.6 (≈ 1.43 µg/mL)	–	3720	128	3	5.06	40.5	3400
Cc1n[nH]c2nc(-c3ccc(NS(=O)(=O)c4cc(Cl)ccc4F)cc3)nc(NCCN(C)CCOC(=O)C(C)(C)C)c12 [Compound 82, 2-{[2-({6-[4-(5-chloro-2-fluorobenzenesulfonamido)phenyl]-3-methyl-1H-pyrazolo[3,4-d]pyrimidin-4-yl}amino)ethyl](methyl)amino}ethyl 2,2-dimethylpropanoate]	–	–	–	607	4.5	1.7	–	–	–
Cc1n[nH]c2nc(-c3ccc(NS(=O)(=O)c4cc(Cl)ccc4F)cc3)nc(NCCN(C)CCOC(=O)CC(C)C)c12 [Compound 83, 2-{[2-({6-[4-(5-chloro-2-fluorobenzenesulfonamido)phenyl]-3-methyl-1H-pyrazolo[3,4-d]pyrimidin-4-yl}amino)ethyl](methyl)amino}ethyl 3-methylbutanoate]	–	–	–	788	4.9	2.4	–	–	–
Cc1n[nH]c2nc(-c3ccc(NS(=O)(=O)c4cc(Cl)ccc4F)cc3)nc(OCCN(C)CCO)c12 [Compound 86, 5-chloro-2-fluoro-N-[4-(4-{2-[(2-hydroxyethyl)(methyl)amino]ethoxy}-3-methyl-1H-pyrazolo[3,4-d]pyrimidin-6-yl)phenyl]benzenesulfonamide]	75 (≈ 40.1 µg/mL)	0.66 (≈ 0.353 µg/mL)	–	40.9	3.1	26	4.9	6.7	354
CC(=O)OCCN(C)CCNc1nc(-c2ccc(NS(=O)(=O)c3cc(Cl)ccc3F)cc2)nc2[nH]nc(C)c12 [Compound 87, 2-[[2-([6-[4-(5-chloro-2-fluorobenzenesulfonamido)phenyl]-3-methyl-1H-pyrazolo[3,4-d]pyrimidin-4-yl]amino)ethyl](methyl)amino]ethyl acetate]	290	0.6	–	1020	7.5	2	–	–	–
Cc1n[nH]c2nc(-c3ccc(NS(=O)(=O)c4cc(Cl)ccc4F)cc3)nc(NCCN(C)CCOP(=O)(O)O)c12 [Compound 88, 2-{[2-({6-[4-(5-chloro-2-fluorobenzenesulfonamido)phenyl]-3-methyl-1H-pyrazolo[3,4-d]pyrimidin-4-yl}amino)ethyl](methyl)amino}ethoxyphosphonic acid]	–	–	–	14.5	1.6	4.3	–	–	–
Cc1n[nH]c2nc(-c3ccc(NS(=O)(=O)c4cc(Cl)ccc4F)cc3)nc(NCCN(C)CCOC(=O)C(C)C)c12 [Compound 89, 2-{[2-({6-[4-(5-chloro-2-fluorobenzenesulfonamido)phenyl]-3-methyl-1H-pyrazolo[3,4-d]pyrimidin-4-yl}amino)ethyl](methyl)amino}ethyl 2-methylpropanoate trifluoroacetic acid]	–	–	–	1740	11	1.2	–	–	–
CCC(=O)OCCN(C)CCNc1nc(-c2ccc(NS(=O)(=O)c3cc(Cl)ccc3F)cc2)nc2[nH]nc(C)c12 [Compound 90, 2-{[2-({6-[4-(5-chloro-2-fluorobenzenesulfonamido)phenyl]-3-methyl-1H-pyrazolo[3,4-d]pyrimidin-4-yl}amino)ethyl](methyl)amino}ethyl propanoate; bis(trifluoroacetic acid)]	–	–	–	523	5.5	2.4	–	–	–
CCCC(=O)OCCN(C)CCNc1nc(-c2ccc(NS(=O)(=O)c3cc(Cl)ccc3F)cc2)nc2[nH]nc(C)c12 [Compound 91, 2-{[2-({6-[4-(5-chloro-2-fluorobenzenesulfonamido)phenyl]-3-methyl-1H-pyrazolo[3,4-d]pyrimidin-4-yl}amino)ethyl](methyl)amino}ethyl butanoate trifluoroacetic acid]	–	–	–	319	2.2	4.5	–	–	–
COc1cc(-c2nc(NCCN(C)C)c3c(C)n[nH]c3n2)ccc1NS(=O)(=O)c1cc(F)ccc1F [Compound 96, N-[4-(4-{[2-(dimethylamino)ethyl]amino}-3-methyl-1H-pyrazolo[3,4-d]pyrimidin-6-yl)-2-methoxyphenyl]-2,5-difluorobenzenesulfonamide]	–	–	–	–	–	–	3.3	24	267
Cc1n[nH]c2nc(-c3ccc(NS(=O)(=O)c4cc(OC(C)C)ccn4)c(Cl)c3)nc(NCCN(C)C)c12 [Compound 100, N-[2-chloro-4-(4-{[2-(dimethylamino)ethyl]amino}-3-methyl-1H-pyrazolo[3,4-d]pyrimidin-6-yl)phenyl]-4-isopropoxypyridine-2-sulfonamide]	–	–	–	–	–	–	3.8	39.5	2480
Cc1n[nH]c2nc(-c3ccc(NS(=O)(=O)c4cc(Cl)ccc4F)c(Cl)c3)nc(OC3CCN(C)CC3)c12 [Compound 101, 5-chloro-N-(2-chloro-4-{3-methyl-4-[(1-methylpiperidin-4-yl)oxy]-1H-pyrazolo[3,4-d]pyrimidin-6-yl}phenyl)-2-fluorobenzenesulfonamide]	–	–	–	–	–	–	3.8	75	8120
Cc1n[nH]c2nc(-c3ccc(NS(=O)(=O)c4cc(Cl)ccc4F)cc3)nc(N(C)CCN(C)C)c12 [Compound 154, 5-chloro-N-(4-(4-((2-(dimethylamino)ethyl)(methyl)amino)-3-methyl-1H-pyrazolo[3,4-d]pyrimidin-6-yl)phenyl)-2-fluorobenzenesulfonamide]	136 (≈ 70.5 µg/mL)	1.61 (≈ 0.834 µg/mL)	–	–	–	–	–	–	–
Cc1n[nH]c2nc(-c3ccc(NS(=O)(=O)c4cc(F)ccc4F)c(F)c3)nc(O[C@@H]3CCNC[C@@H]3F)c12 [Compound 155]	–	–	–	–	–	–	7.5	5.3	283
Cc1n[nH]c2nc(-c3ccc(NS(=O)(=O)c4cc(F)ccc4F)c(Cl)c3)nc(O[C@@H]3CCNC[C@@H]3F)c12 [Compound 156, N-[2-chloro-4-(4-{[(3S,4R)-3-fluoropiperidin-4-yl]oxy}-3-methyl-1H-pyrazolo[3,4-d]pyrimidin-6-yl)phenyl]-2,5-difluorobenzenesulfonamide hydrochloride]	–	–	–	–	–	–	5.2	12	548
